Reference: ChEMBL document CHEMBL2417394, “Exquisite selectivity for human toll-like receptor 8 in substituted furo[2,3-c]quinolines” (J Med Chem, 2013)
Calls of active or inactive are those of the source. No cut-off for these calls is given here.

What was measured:
Type in all cases: cell-based
[1] = target: T1, Toll-like receptor 9 (Homo sapiens) (UniProt Q9NR96); assay: Antagonist activity at human TLR9 expressed in HEK293 cells co-transfected with MD2 and sAP assessed as inhibition of NF-kappaB activity by reporter gene assay
T1 sequence (whole entry): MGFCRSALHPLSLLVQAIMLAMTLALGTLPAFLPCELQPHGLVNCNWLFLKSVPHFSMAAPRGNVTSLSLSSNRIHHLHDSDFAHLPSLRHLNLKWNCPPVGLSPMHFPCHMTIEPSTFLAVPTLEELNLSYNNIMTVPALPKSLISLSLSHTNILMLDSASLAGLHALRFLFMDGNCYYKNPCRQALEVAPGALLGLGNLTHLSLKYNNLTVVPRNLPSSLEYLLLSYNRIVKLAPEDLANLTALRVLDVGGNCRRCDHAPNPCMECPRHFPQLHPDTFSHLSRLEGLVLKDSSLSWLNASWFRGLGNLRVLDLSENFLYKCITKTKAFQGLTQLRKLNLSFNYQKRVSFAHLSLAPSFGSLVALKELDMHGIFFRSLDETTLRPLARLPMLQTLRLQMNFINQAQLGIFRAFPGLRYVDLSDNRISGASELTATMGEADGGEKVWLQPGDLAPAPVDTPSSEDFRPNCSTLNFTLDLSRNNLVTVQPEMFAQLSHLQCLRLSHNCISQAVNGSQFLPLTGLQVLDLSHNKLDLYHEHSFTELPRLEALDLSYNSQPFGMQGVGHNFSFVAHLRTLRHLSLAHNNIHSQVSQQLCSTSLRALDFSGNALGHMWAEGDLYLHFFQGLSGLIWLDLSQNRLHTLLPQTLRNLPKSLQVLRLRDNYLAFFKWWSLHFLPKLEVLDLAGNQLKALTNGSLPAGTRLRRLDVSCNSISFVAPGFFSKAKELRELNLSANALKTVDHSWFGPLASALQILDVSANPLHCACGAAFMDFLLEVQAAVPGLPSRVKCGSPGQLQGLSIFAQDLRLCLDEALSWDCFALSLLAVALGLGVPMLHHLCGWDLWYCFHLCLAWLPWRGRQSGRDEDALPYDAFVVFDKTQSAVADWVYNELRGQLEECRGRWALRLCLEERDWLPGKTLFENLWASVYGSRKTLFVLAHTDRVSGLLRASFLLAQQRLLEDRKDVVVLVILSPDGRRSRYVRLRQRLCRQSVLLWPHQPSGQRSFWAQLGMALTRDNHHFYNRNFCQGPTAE

[2] = target: T2, Toll-like receptor 8 (Homo sapiens) (UniProt Q9NR97); assay: Antagonist activity at human TLR8 expressed in HEK293 cells co-transfected with MD2 and sAP assessed as inhibition of NF-kappaB activity by reporter gene assay
T2 sequence (whole entry): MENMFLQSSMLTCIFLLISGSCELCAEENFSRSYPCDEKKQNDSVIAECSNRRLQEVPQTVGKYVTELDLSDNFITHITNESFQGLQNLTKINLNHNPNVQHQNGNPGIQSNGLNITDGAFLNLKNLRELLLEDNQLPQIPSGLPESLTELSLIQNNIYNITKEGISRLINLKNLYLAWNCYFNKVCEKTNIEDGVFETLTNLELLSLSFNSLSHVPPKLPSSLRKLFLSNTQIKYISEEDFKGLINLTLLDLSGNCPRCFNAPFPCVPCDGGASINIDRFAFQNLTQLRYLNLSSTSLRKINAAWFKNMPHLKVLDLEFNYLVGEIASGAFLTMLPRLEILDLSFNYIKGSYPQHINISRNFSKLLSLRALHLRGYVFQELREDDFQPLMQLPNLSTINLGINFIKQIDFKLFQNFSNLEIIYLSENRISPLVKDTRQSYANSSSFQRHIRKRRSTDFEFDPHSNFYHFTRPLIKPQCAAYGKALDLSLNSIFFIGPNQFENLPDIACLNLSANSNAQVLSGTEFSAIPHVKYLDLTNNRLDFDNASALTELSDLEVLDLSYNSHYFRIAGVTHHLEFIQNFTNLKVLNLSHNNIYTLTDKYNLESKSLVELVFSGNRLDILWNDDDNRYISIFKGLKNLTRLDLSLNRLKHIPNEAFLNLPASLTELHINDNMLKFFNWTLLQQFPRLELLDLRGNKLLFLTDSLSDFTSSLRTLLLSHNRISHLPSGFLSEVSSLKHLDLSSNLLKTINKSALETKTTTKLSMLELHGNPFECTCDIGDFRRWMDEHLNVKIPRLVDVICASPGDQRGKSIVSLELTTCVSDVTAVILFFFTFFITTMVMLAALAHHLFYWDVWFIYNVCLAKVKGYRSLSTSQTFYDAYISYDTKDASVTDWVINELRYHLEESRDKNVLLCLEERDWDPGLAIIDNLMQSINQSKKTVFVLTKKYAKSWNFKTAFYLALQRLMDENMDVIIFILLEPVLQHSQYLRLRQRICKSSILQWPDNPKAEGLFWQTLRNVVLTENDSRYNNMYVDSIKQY

[3] = target: Toll-like receptor 3 (Homo sapiens) (UniProt O15455); assay: Antagonist activity at human TLR3 expressed in HEK293 cells co-transfected with MD2 and sAP assessed as inhibition of NF-kappaB activity by reporter gene assay
[4] = target: T1, Toll-like receptor 9 (Homo sapiens); assay: Modulation of human TLR9 expressed in HEK293 cells co-transfected with MD2 and sAP assessed as induction of NF-kappaB activity by reporter gene assay
[5] = target: Toll-like receptor 2 (Homo sapiens) (UniProt O60603); assay: Modulation of human TLR2 expressed in HEK293 cells co-transfected with MD2 and sAP assessed as induction of NF-kappaB activity by reporter gene assay
Toll-like receptor 2 (Homo sapiens), sequence (O60603 whole entry): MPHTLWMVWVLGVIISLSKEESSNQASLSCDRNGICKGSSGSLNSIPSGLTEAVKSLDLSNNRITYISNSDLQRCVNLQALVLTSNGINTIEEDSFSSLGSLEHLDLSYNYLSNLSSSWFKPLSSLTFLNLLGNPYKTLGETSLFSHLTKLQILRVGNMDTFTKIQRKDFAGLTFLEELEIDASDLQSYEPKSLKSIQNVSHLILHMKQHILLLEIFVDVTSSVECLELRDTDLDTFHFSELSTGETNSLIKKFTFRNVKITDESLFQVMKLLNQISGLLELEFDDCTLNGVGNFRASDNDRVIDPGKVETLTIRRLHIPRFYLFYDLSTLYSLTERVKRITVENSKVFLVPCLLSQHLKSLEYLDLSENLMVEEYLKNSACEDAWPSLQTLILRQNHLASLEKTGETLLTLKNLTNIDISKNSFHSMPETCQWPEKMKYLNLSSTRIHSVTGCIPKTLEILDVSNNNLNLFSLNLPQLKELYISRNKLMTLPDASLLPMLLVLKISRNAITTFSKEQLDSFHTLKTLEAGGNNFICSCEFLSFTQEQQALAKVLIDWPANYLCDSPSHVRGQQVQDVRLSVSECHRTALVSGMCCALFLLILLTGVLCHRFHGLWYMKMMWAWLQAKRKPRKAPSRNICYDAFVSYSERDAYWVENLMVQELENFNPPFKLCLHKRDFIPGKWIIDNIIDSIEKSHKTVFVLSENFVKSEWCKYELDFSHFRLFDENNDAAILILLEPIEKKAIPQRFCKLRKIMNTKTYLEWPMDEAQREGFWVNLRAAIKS

Toll-like receptor 3 (Homo sapiens), sequence (O15455 whole entry): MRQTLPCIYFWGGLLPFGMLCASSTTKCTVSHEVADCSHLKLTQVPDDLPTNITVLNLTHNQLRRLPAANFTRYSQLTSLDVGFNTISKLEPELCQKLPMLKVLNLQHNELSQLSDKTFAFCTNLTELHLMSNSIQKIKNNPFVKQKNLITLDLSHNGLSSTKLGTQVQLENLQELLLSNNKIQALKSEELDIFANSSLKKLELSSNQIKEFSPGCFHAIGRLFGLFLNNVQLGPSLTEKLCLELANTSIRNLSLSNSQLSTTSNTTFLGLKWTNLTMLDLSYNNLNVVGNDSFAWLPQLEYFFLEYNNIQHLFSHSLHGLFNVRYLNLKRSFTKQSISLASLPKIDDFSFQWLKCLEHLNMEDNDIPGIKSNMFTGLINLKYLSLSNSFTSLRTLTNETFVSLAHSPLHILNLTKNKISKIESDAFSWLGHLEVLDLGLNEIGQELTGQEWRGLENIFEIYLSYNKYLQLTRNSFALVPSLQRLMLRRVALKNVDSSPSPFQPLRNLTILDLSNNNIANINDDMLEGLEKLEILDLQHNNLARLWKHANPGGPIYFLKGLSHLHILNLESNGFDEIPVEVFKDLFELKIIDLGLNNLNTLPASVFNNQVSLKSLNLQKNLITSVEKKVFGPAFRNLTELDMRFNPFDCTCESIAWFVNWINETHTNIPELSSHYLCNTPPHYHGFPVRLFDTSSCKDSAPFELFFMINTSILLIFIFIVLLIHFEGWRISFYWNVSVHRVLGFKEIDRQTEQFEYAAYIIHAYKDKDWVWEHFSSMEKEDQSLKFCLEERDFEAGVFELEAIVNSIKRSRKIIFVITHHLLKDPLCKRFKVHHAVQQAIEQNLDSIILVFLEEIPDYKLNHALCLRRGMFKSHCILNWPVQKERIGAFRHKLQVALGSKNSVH

| Compound | inhibition [1] | inhibition [2] | inhibition [3] | Activity [4] | Activity [5] |
| --- | --- | --- | --- | --- | --- |
| CCCc1cc2c(N)nc3ccccc3c2o1 | inactive | inactive | inactive | – | – |
| CCCCc1cc2c(nc(N)c3ccccc32)o1 | inactive | inactive | inactive | inactive | inactive |
| Nc1nc2ccccc2c2oc(-c3ccccc3)cc12 | inactive | inactive | inactive | – | – |
| CCCCc1cc2c(N)nc3ccccc3c2o1 | inactive | inactive | inactive | – | – |
| NCCc1cc2c(o1)c(N)nc1ccccc12 | – | – | – | Active | Active |
